Data reported in PubChem BioAssay (NCI).
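Step 1: Grow cells in 96-well plates. Step 2: Expose to compound for 48 hours at 5 concentrations. Step 3: Interpolate endpoints linearly; if unreached, use highest concentration. TGI: total growth inhibition.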

Columns and labels:
Experiment in all cases: NCI anticancer screen, dose series, 48 h
SK-MEL-5 melanoma = system: SK-MEL-5 melanoma
NCI-H460 lung = system: NCI-H460 lung
UACC-62 melanoma = system: UACC-62 melanoma
CCRF-CEM leukemia = system: CCRF-CEM leukemia
NCI-H226 lung = system: NCI-H226 lung
MOLT-4 leukemia = system: MOLT-4 leukemia
HCC-2998 colon = system: HCC-2998 colon
EKVX NSCLC = system: EKVX NSCLC
RPMI-8226 leukemia = system: RPMI-8226 leukemia
OVCAR-8 ovarian = system: OVCAR-8 ovarian
XF 498 CNS = system: XF 498 CNS
U251 CNS = system: U251 CNS
SN12C renal = system: SN12C renal
SF-539 CNS = system: SF-539 CNS
HOP-62 NSCLC = system: HOP-62 NSCLC
OVCAR-5 ovarian = system: OVCAR-5 ovarian
LOX IMVI melanoma = system: LOX IMVI melanoma
LXFL 529 NSCLC = system: LXFL 529 NSCLC
UO-31 renal = system: UO-31 renal
MALME-3M melanoma = system: MALME-3M melanoma
SF-268 CNS = system: SF-268 CNS
KM20L2 colon = system: KM20L2 colon
HT29 colon = system: HT29 colon
HOP-92 NSCLC = system: HOP-92 NSCLC
M19-MEL melanoma = system: M19-MEL melanoma
K-562 leukemia = system: K-562 leukemia
HOP-18 NSCLC = system: HOP-18 NSCLC
SK-OV-3 ovarian = system: SK-OV-3 ovarian
SF-295 CNS = system: SF-295 CNS
COLO 205 colon = system: COLO 205 colon
SW-620 colon = system: SW-620 colon
SNB-75 CNS = system: SNB-75 CNS
M14 melanoma = system: M14 melanoma
DLD-1 colon = system: DLD-1 colon
A549 NSCLC = system: A549 NSCLC
KM12 colon = system: KM12 colon
IGROV1 ovarian = system: IGROV1 ovarian
RXF-631 renal = system: RXF-631 renal
786-0 renal = system: 786-0 renal
ACHN renal = system: ACHN renal
HCT-15 colon = system: HCT-15 colon
TK-10 renal = system: TK-10 renal
UACC-257 melanoma = system: UACC-257 melanoma
HCT-116 colon = system: HCT-116 colon
SR leukemia = system: SR leukemia
HL-60(TB) leukemia = system: HL-60(TB) leukemia
NCI-H522 lung = system: NCI-H522 lung
OVCAR-3 ovarian = system: OVCAR-3 ovarian
RXF 393 renal = system: RXF 393 renal
SNB-19 CNS = system: SNB-19 CNS
NCI-H23 lung = system: NCI-H23 lung
SK-MEL-28 melanoma = system: SK-MEL-28 melanoma
A498 renal = system: A498 renal
SK-MEL-2 melanoma = system: SK-MEL-2 melanoma
OVCAR-4 ovarian = system: OVCAR-4 ovarian
DMS 273 small cell lung = system: DMS 273 small cell lung
SNB-78 CNS = system: SNB-78 CNS
CAKI-1 renal = system: CAKI-1 renal
DMS 114 small cell lung = system: DMS 114 small cell lung

COc1ccc(C2NCCc3c2[nH]c2ccccc32)cc1 (stereo unspecified)
TGI (SK-MEL-5 melanoma): 66.1 µM
TGI (NCI-H460 lung): > 100 µM
TGI (UACC-62 melanoma): > 100 µM
TGI (CCRF-CEM leukemia): > 100 µM
TGI (NCI-H226 lung): > 100 µM
TGI (MOLT-4 leukemia): > 100 µM
TGI (HCC-2998 colon): 65.1 µM
TGI (EKVX NSCLC): > 100 µM
TGI (RPMI-8226 leukemia): > 100 µM
TGI (OVCAR-8 ovarian): > 100 µM
TGI (XF 498 CNS): > 100 µM
TGI (U251 CNS): > 100 µM
TGI (SN12C renal): > 100 µM
TGI (SF-539 CNS): > 100 µM
TGI (HOP-62 NSCLC): > 100 µM
TGI (OVCAR-5 ovarian): > 100 µM
TGI (LOX IMVI melanoma): > 100 µM
TGI (LXFL 529 NSCLC): > 100 µM
TGI (UO-31 renal): > 100 µM
TGI (MALME-3M melanoma): > 100 µM
TGI (SF-268 CNS): > 100 µM
TGI (KM20L2 colon): > 100 µM
TGI (HT29 colon): > 100 µM
TGI (HOP-92 NSCLC): > 100 µM
TGI (M19-MEL melanoma): > 100 µM
TGI (K-562 leukemia): > 100 µM
TGI (HOP-18 NSCLC): > 100 µM
TGI (SK-OV-3 ovarian): > 100 µM
TGI (SF-295 CNS): > 100 µM
TGI (COLO 205 colon): > 100 µM
TGI (SW-620 colon): > 100 µM
TGI (SNB-75 CNS): > 100 µM
TGI (M14 melanoma): > 100 µM
TGI (DLD-1 colon): > 100 µM
TGI (A549 NSCLC): > 100 µM
TGI (KM12 colon): > 100 µM
TGI (IGROV1 ovarian): > 100 µM
TGI (RXF-631 renal): > 100 µM
TGI (786-0 renal): > 100 µM
TGI (ACHN renal): > 100 µM
TGI (HCT-15 colon): > 100 µM
TGI (TK-10 renal): > 100 µM
TGI (UACC-257 melanoma): > 100 µM
TGI (HCT-116 colon): > 100 µM
TGI (SR leukemia): 91.5 µM
TGI (HL-60(TB) leukemia): > 100 µM
TGI (NCI-H522 lung): > 100 µM
TGI (OVCAR-3 ovarian): > 100 µM
TGI (RXF 393 renal): > 100 µM
TGI (SNB-19 CNS): > 100 µM
TGI (NCI-H23 lung): > 100 µM
TGI (SK-MEL-28 melanoma): > 100 µM

Cc1cc([N+](=O)[O-])c(S(=O)(=O)c2ccccc2)c([N+](=O)[O-])c1
TGI (SK-MEL-5 melanoma): 27.8 µM
TGI (NCI-H460 lung): 28.2 µM
TGI (UACC-62 melanoma): > 44.3 µM
TGI (CCRF-CEM leukemia): > 28 µM
TGI (NCI-H226 lung): 41.9 µM
TGI (MOLT-4 leukemia): > 28.9 µM
TGI (HCC-2998 colon): 35.7 µM
TGI (EKVX NSCLC): > 72.5 µM
TGI (RPMI-8226 leukemia): 45.9 µM
TGI (OVCAR-8 ovarian): > 62.5 µM
TGI (XF 498 CNS): 27.6 µM
TGI (U251 CNS): 26.6 µM
TGI (A498 renal): 35.6 µM
TGI (SK-MEL-2 melanoma): 47.6 µM
TGI (SN12C renal): 18.3 µM
TGI (SF-539 CNS): 32.6 µM
TGI (HOP-62 NSCLC): 40 µM
TGI (OVCAR-5 ovarian): 33.6 µM
TGI (LOX IMVI melanoma): 6.51 µM
TGI (LXFL 529 NSCLC): 10.6 µM
TGI (OVCAR-4 ovarian): 24.5 µM
TGI (UO-31 renal): 31 µM
TGI (MALME-3M melanoma): 27.9 µM
TGI (SF-268 CNS): 50.4 µM
TGI (KM20L2 colon): 37.3 µM
TGI (DMS 273 small cell lung): 32.1 µM
TGI (HT29 colon): 19.1 µM
TGI (HOP-92 NSCLC): 5.28 µM
TGI (M19-MEL melanoma): 26.3 µM
TGI (K-562 leukemia): > 100 µM
TGI (HOP-18 NSCLC): 29.6 µM
TGI (SK-OV-3 ovarian): 74.7 µM
TGI (SF-295 CNS): 36.9 µM
TGI (COLO 205 colon): 24 µM
TGI (SW-620 colon): 10.1 µM
TGI (SNB-75 CNS): 47.3 µM
TGI (SNB-78 CNS): 48.6 µM
TGI (M14 melanoma): 17.6 µM
TGI (DLD-1 colon): 17 µM
TGI (CAKI-1 renal): 10.3 µM
TGI (A549 NSCLC): 41.3 µM
TGI (KM12 colon): 32.1 µM
TGI (IGROV1 ovarian): 31.1 µM
TGI (RXF-631 renal): > 100 µM
TGI (786-0 renal): 12.3 µM
TGI (ACHN renal): 33.4 µM
TGI (HCT-15 colon): 35.3 µM
TGI (TK-10 renal): 32.4 µM
TGI (DMS 114 small cell lung): 9.63 µM
TGI (UACC-257 melanoma): 5.16 µM
TGI (HCT-116 colon): 22.5 µM
TGI (SR leukemia): > 100 µM
TGI (HL-60(TB) leukemia): 10.7 µM
TGI (NCI-H522 lung): 3.14 µM
TGI (OVCAR-3 ovarian): 11.4 µM
TGI (RXF 393 renal): 4.8 µM
TGI (SNB-19 CNS): 32.9 µM
TGI (NCI-H23 lung): 26.2 µM
TGI (SK-MEL-28 melanoma): 40.9 µM
